Laboratory results: paper PMC10077475, “DG9-conjugated morpholino rescues phenotype in SMA mice by reaching the CNS via a subcutaneous administration” (JCI Insight, 2023)

System: SMN2 (ISS-N1 intron 7)
Experiment: FL-SMN2 expression relative to Δ7 SMN2 transcripts by RT-qPCR in tissues of severe SMA mice
Type: in vivo, mouse
Details: both doses (40 and 80 mg/kg s.c. at PD0), tissues at PD7, peripheral and CNS tissues, RT-qPCR ΔΔCt
Description: To evaluate the change of FL-SMN2 expression relative to Δ7 SMN2 transcripts, we used real-time quantitative PCR (RT-qPCR) at PD7; the mice were treated with DG9-PMO at PD0. In both doses, DG9-PMO treatment led to a 4- to 30-fold higher FL-SMN2 expression than NT control in both peripheral and CNS tissues (Figure 2A and Supplemental Figure 3A). It also led to a ~5-fold increase in FL-SMN2 expression when compared with unconjugated PMO, MOE, and R6G-PMO treatments in the majority of the tissues (Figure 2A, Supplemental Figure 3A, and Supplemental Figure 1F). […] SMN levels were higher in CNS tissues in the DG9-PMO–treated than MOE-treated mice, though no statistical significance was seen. […] SMN levels were similar in DG9-PMO and MOE in the tissues collected from mice at PD30.
Injections were carried out using a 30-gauge Hamilton syringe. SMA mice identified following genotyping were randomly assigned to a treatment group. […]
Frozen tissues harvested at PD7 were sectioned using a cryostat (Leica CM 1950) into 20 μm sections. […] The relative gene expression for FL-SMN2 over the deletion of SMN2 transcripts without exon 7 was normalized to the NT control samples and analyzed using the ΔΔCt method. The expression of denervation markers relative to 18S was normalized to the healthy heterozygous control samples collected at PD30 and analyzed using the ΔΔCt method.

## CC(=O)N[C@@H](Cc1ccc(O)cc1)C(=O)N[C@@H](C)C(=O)N[C@H](CCCNC(=N)N)C(=O)N[C@H](C(=O)N[C@@H](CCCNC(=N)N)C(=O)N[C@@H](CCCNC(=N)N)C(=O)N[C@H](CCCNC(=N)N)C(=O)NCC(=O)N1CCC[C@H]1C(=O)N[C@@H](CCCNC(=N)N)C(=O)NCC(=O)N[C@@H](Cc1ccc(O)cc1)C(=O)N[C@@H](C)C(=O)N[C@H](CCCNC(=N)N)C(=O)N[C@H](C(=O)N[C@@H](CCCNC(=N)N)C(=O)N[C@@H](CCCNC(=N)N)C(=O)N[C@H](CCCNC(=N)N)C(=O)NCC(=O)N1CCC[C@H]1C(=O)N[C@@H](CCCNC(=N)N)C(=O)N[C@H](CCCNC(=N)N)C(=O)N1C[C@@H](COP(=O)(N(C)C)N2C[C@@H](COP(=O)(N(C)C)N3C[C@@H](COP(=O)(N(C)C)N4C[C@@H](COP(=O)(N(C)C)N5C[C@@H](COP(=O)(N(C)C)N6C[C@@H](COP(=O)(N(C)C)N7C[C@@H](COP(=O)(N(C)C)N8C[C@@H](COP(=O)(N(C)C)N9C[C@@H](COP(=O)(N(C)C)N%10C[C@@H](COP(=O)(N(C)C)N%11C[C@@H](COP(=O)(N(C)C)N%12C[C@@H](COP(=O)(N(C)C)N%13C[C@@H](COP(=O)(N(C)C)N%14C[C@@H](COP(=O)(N(C)C)N%15C[C@@H](COP(=O)(N(C)C)N%16C[C@@H](COP(=O)(N(C)C)N%17C[C@@H](COP(=O)(N(C)C)N%18C[C@@H](COP(=O)(N(C)C)N%19CCC(C(N)=O)CC%19)O[C@@H](n%19cc(C)c(=O)[nH]c%19=O)C%18)O[C@@H](n%18ccc(N)nc%18=O)C%17)O[C@@H](n%17cnc%18c(N)ncnc%18%17)C%16)O[C@@H](n%16ccc(N)nc%16=O)C%15)O[C@@H](n%15cc(C)c(=O)[nH]c%15=O)C%14)O[C@@H](n%14cc(C)c(=O)[nH]c%14=O)C%13)O[C@@H](n%13cc(C)c(=O)[nH]c%13=O)C%12)O[C@@H](n%12ccc(N)nc%12=O)C%11)O[C@@H](n%11cnc%12c(N)ncnc%12%11)C%10)O[C@@H](n%10cc(C)c(=O)[nH]c%10=O)C9)O[C@@H](n9cnc%10c(N)ncnc%109)C8)O[C@@H](n8cnc9c(N)ncnc98)C7)O[C@@H](n7cc(C)c(=O)[nH]c7=O)C6)O[C@@H](n6cnc7c(=O)[nH]c(N)nc76)C5)O[C@@H](n5ccc(N)nc5=O)C4)O[C@@H](n4cc(C)c(=O)[nH]c4=O)C3)O[C@@H](n3cnc4c(=O)[nH]c(N)nc43)C2)O[C@@H](n2cnc3c(=O)[nH]c(N)nc32)C1)C(C)C)C(C)C (stereo partly shown) [DG9-PMO]
  FL-SMN2 expression (relative to Δ7 SMN2), fold higher than NT control: 4- to 30 fold
